Results from publication PMC11754443, “Synthesis, H2S releasing properties, antiviral and antioxidant activities and acute cardiac effects of nucleoside 5′-dithioacetates” (Scientific Reports, 2025).
Read-outs that look alike come from different tables or passages of the source.

Tests used:
[1] = parameters: method as in PMID 26809888; conditions: administered at the end of sustained ischemia; cited from earlier work
[2] = system: perivascular adipose tissue; parameters: method as in PMID 26120822; conditions: obese rats, through H2S release; cited from earlier work
[3] = DPPH radical scavenging assay; conditions: for DPPH inhibition ratio after 30 min incubation / DPPH inhibition ratio immediately: 2 mM; for IC50: without extract; for DPPH activity lower than that of ascorbic acid: from IC50 values, relative to ascorbic acid
Description: DPPH is a stable free radical with a deep violet color that changes to yellow when neutralized by an electron or hydrogen radical, indicating the antioxidant activity of the sample being tested. The DPPH radical scavenging abilities were investigated following the method outlined by Shimamura et al., with minor adjustments. In this study, a cardiovascular tissue homogenate was used to induce H2S release from the dithioacetate derivatives 22 and 24, as well as GYY4137. A mixed solution of 1.2 mL of methanol and 800 µL of 0.1 M Tris-HCl buffer (pH 7.4) served as the blank. 1 mL DPPH solution was added to a mixture of methanol and 0.1 M Tris-HCl buffer (200:800 µL). After mixing, the absorbance was recorded at 517 nm on a UV-1600 PC VWR spectrophotometer (VWR, China). To avoid any potential interference from the heart extract in the assay, we measured the absorbance after adding different volumes of the extract into the mixture. These measurements were taken both immediately and after 30 min of incubation.
The DPPH antioxidant assay was performed according to the following procedures. 1 mL of DPPH solution was added to a mixture of 200 µL of the methanolic sample solution and 800 µL of 0.1 M Tris-HCl buffer (pH = 7.4). For the groups containing the extract, the extract was introduced into a mixture of the sample solution in PBS buffer, 0.1 M Tris-HCl buffer, and DPPH (200:800:1000 µL). Considering that GYY4137 produces H2S upon hydrolysis, it was introduced last following the addition of the extract into a solution of PBS buffer, 0.1 M Tris-HCl buffer, and DPPH maintained at the same ratio. The same protocol was employed for NaHS without the addition of the extract. After mixing, the absorbance was promptly recorded, after which the solutions were incubated in the dark at room temperature for 30 min before the absorbance was measured again. The test samples were prepared and assayed at varying concentrations using a 2-fold serial dilution method, starting from a concentration of 2 mM. Each investigation was performed in triplicate, and the antioxidant activity was based on the absorbance recorded at 517 nm. Ascorbic acid (AA), GYY4137, and NaHS served as positive controls, while the unmodified nucleosides were used as reference compounds.
The inhibition ratio (IR) was calculated as follows: [drawing 1] where Ac is the absorbance when methanol is added instead of the sample and As is the absorbance when the testing sample solution is added.
The antioxidant capacity was expressed as the concentration needed to achieve a 50% inhibition of the free radical (IC50). The IC50 values were calculated by plotting the percent of inhibition as a function of sample concentration.

[4] = ABTS radical cation decolorization assay; conditions: 0.1 mM, compared with parent dithioacetates 22 and 24
Description: The ABTS decolorization assay was carried out as described by Szoke et al.[54] Briefly, the method is based on the scavenging of (2,2′-azinobis-(3-ethylbenzothiazoline-6-sulfonic acid) ABTS^•+ radical cation. The decolorization caused by the compound is compared to the decolorization induced by Trolox (6-hydroxy-2,5,7,8-tetramethylchroman-2-carboxylic acid), and expressed as Trolox equivalent antioxidant capacity (TEAC) value. TEAC values were expressed as Trolox equivalents calculated from (Ai − Af)antioxidant/(Ai − Af) Trolox at 0.1 mM concentrations. Briefly, a total of 10 µL sample, 20 µL of Myoglobin Working Solution, and 150 µL of ABTS Substrate Working Solution were mixed and incubated for 5 min at room temperature. At the end of incubation […] of Stop Solution was added and endpoint absorbance at 405 nm was read. All experiments were performed in triplicates and repeated three times.

[5] = system: anaesthetized Sprague-Dawley rats; test: Cardiac effects by ECG and echocardiography in anaesthetized rats; assay type: in vivo, rat; conditions: 2 mg/kg i.v.
Description: The animals received humane care, and all experimental procedures were carried out in accordance with the “Principles of Laboratory Animal Care” by EU Directive 2010/63/EU. All experimental protocols were approved by the local Ethics Committee of University of Debrecen (25/2023/DEMÁB). Animal experiments are reported in compliance with the ARRIVE guidelines. Anesthesia was carried out using ketamine/xylazine mixture (100/10 mg/kg, i.m.). The chest was shaved and the animal was placed onto a heated pad (VisualSonics SR200, VisualSonics, Amsterdam, The Netherlands). The lateral tail vein was cannulated using a heparinized 26G i.v. cannula (BD Neoflon, BD Medical, NJ, USA). B-mode and M-mode echocardiography was carried out before and 30 s after the intravenous administration of the compounds. A high-resolution ultrasound machine (Vevo 3100 Imaging Station, VisualSonics, Amsterdam, The Netherlands) equipped with a […] transducer (MX201) was used for assessing cardiac parameters. Traces were obtained from the parasternal long axis view (PLAX). A B-mode video and an M-mode trace was recorded, and the following parameters were then offline analysed: left ventricle (LV) end-systolic and end-diastolic volume (LVESV, LVEDV, respectively) fractional shortening (FS) and ejection fraction (EF) and stroke volume (SV).
A 3-channel ECG was continuously recorded during the experiments (Vevo monitor ECG, VisualSonics, Amsterdam, The Netherlands). On the recorded ECG data, RR, PR and QT intervals, and heart rate (HR) were determined before and 30 s after the administration of the drugs, and 6 consecutive cardiac cycles were averaged for each parameter.
Statistical analyses for the in vivo studies were carried out using the GraphPad Prism 9.0 software (GraphPad Software, San Diego, CA, USA). Data distribution was assessed by the Shapiro-Wilk normality test, and paired t-test were used to determine the differences between the baseline (drug free) and endpoint (treated) parameters in each group. A multiple comparison was also carried out between the treatment groups by using one-way ANOVA with Tukey multiple comparison test. Data was shown as mean ± SD, and differences with p < 0.05 were considered significant.

[6] = system: SARS-CoV-2 (strain hCoV-19/Czech Republic/NRL_6632_2/2020); test: Anti-SARS-CoV-2 cytopathic-effect-based assay in Calu-3 cells (CellTiter-Glo); assay type: cell-based; conditions: Severe acute respiratory syndrome coronavirus 2, compound added 2 h after infection, MOI 0.3, read after two days, read-out: EC50 ± SE, anti-SARS-CoV-2 activity
[7] = Cytotoxicity in Calu-3 cells (CellTiter-Glo); assay type: cell-based, human; conditions: human
Description: Cytotoxicity was evaluated by incubating the same two-fold serial dilutions of each compound with Calu-3 cells as above in the absence of the virus. Following two days incubation at 37 °C in 5% CO2, the cell viability was determined as above. The compound concentrations resulting in 50% reduction of cell viability (CC50) were calculated from plots of percentage of luminescence versus log10 drug concentration as above. Remdesivir was used as control in both assays.

SARS-CoV-2 = assay type: cell-based; conditions: medium of Calu-3 cells infected 2 days at the highest compound concentration, plaque assay in Vero E6 cells
[8] = after 30 min incubation, read-out: DPPH IC50 30 min
[9] = measured immediately, read-out: DPPH IC50 immediately
[10] = anaesthetized SD rats, 30 s after administration, mean ± SD

Compound | effect on anti-contractile effects of perivascular adipose tissue [2] | DPPH inhibition ratio after 30 min incubation ([3]; after 30 min incubation) [%] | DPPH inhibition ratio immediately [3] | IC50 [3, 8] [µM] | DPPH activity lower than that of ascorbic acid [3] [times] | IC50 [3, 9] [µM] | ABTS antioxidant activity (Trolox equivalents), in words [4] | also measured
NC(=S)c1ccc(OC[C@H]2O[C@@H](n3cnc4c(N)ncnc43)[C@H](O)[C@@H]2O)cc1 [Compound 1] |  |  |  |  |  |  |  | effect on infarct size [1]: significantly reduced infarct size
Nc1ncnc2c1ncn2[C@@H]1O[C@H](COP(O)(O)=S)[C@@H](O)[C@H]1O [Compound 2] | restore the anti-contractile effects of perivascular adipose tissue in obese rats |  |  |  |  |  |  | 
Nc1nc2c(ncn2[C@@H]2O[C@H](COP(O)(O)=S)[C@@H](O)[C@H]2O)c(=O)[nH]1 [Compound 3] | restore the anti-contractile effects of perivascular adipose tissue in obese rats |  |  |  |  |  |  | 
O=c1ccn([C@@H]2O[C@H](CS)[C@@H](O)[C@H]2O)c(=O)[nH]1 [Compound 32, 5′-Thiouridine] |  | 90 | 70–80% | 570 | 10 | 710 | higher antioxidant activity than the parent dithioacetate derivatives | 
Nc1ncnc2c1ncn2[C@@H]1O[C@H](CS)[C@@H](O)[C@H]1O [Compound 34, 5′-Deoxy-5′-thioadenosine] |  | 90 | 70–80% | 580 | 10 | 720 | higher antioxidant activity than the parent dithioacetate derivatives | Ejection Fraction [5, 10]: 82.14±5.877%; Heart rate [5, 10]: 97.25±24.66 bpm; PR interval [5, 10]: 49.43 ± 6.973 ms; QT interval [5, 10]: 158.3 ± 35.8 ms; Stroke Volume [5, 10]: 335.6 ± 68.82 µL; duration of negative chronotropic action compared with adenosine ([5]; anaesthetized rats): their duration of action was longer; heart block (in words) ([5]; anaesthetized rats): None of the new compounds (22, 24, and 34) induced complete heart block or pauses
CCC(CC)COC(=O)[C@H](C)N[P@](=O)(OC[C@H]1O[C@@](C#N)(c2ccc3c(N)ncnn23)[C@H](O)[C@@H]1O)Oc1ccccc1 [Remdesivir, reference compound] |  |  |  |  |  |  |  | EC50 [6]: 500 ± 260 nM; CC50 at 2 days [7]: > 10 µM; SARS-CoV-2 titer reduction (SARS-CoV-2): 7.1 log10 PFU/mL
